In patent US10086108B2, “Hydrogels and use thereof in anastomosis procedures” (The United States of America, as represented by the …, priority 2015, dated 2018):

Tests used:
Format in all cases: physicochemical
[1] = Oscillatory rheology of peptide hydrogels (formation, shear-thin/recovery, UV photodisruption); settings: for Storage modulus (G′) of formed gel, regime I time sweep: 1% w/v peptide, pH 7.4, 6 rad/s, 0.2% strain, APC1 after 30 minutes; for Onset of gelation after triggering: regime I
Source text: Oscillatory rheology was employed to study the rheological behavior of each gel under experimental conditions that mimic its use during the anastomosis procedure. Here, the storage modulus (G′), a measure of the gels' mechanical rigidity, is monitored in the rheometer under environmental conditions that mimic: (1) the initial (sol-gel) formation of the hydrogel in the syringe; (2) shear thinning of the material as it passes through the syringe needle during injection with subsequent hydrogel recovery in the vessel lumen; and (3) the disruption of the gel network (gel-sol) by UV photolysis after suturing. Monitoring gel behavior in a rheometer, although not exactly capturing the gel's response during the actual anastomosis procedure, allows quantitative and reproducible measurement of gel mechanical properties under highly controlled conditions. […] In regime I, the rate of hydrogel formation (sol-gel) is assessed in a time-sweep experiment that monitors the evolution of G′ after peptide folding and assembly is triggered for a 1% w/v solution of peptide. […] After completion of the initial time sweep, 1000% strain is applied to the material for 30 seconds in regime II to mimic syringe delivery of the gel. This application of strain results in an immediate decrease in G′ indicative of shear thinning that results in a viscous gel capable of flow. After the 30 seconds, the applied strain is decreased to 0.2% and the material is allowed to recover. […] Lastly, using an optically clear parallel plate in the rheometer, the recovered hydrogel is subjected to irradiation by UV light (365 nm) for the first 10 minutes of regime III, where the effect of photolysis on the storage modulus is monitored over time. […] Importantly, irradiation by UV rapidly disrupts the gel network affording a viscous material, which should be capable of dissolution when exposed to the shear of blood flow. Independent frequency- and strain-sweep measurements were also performed as shown in FIGS. 14A-14B and FIGS. 15A-15B.
Application of 1000% strain in the first 30 sec. of regime II quickly thins the APC2 gel. However, the resulting viscous material is unable to self-heal effectively and recovers only about 5% of its original mechanical rigidity. Finally, irradiation in regime III disrupts the weakly recovered gel. Although APC2 is initially able to form a very rigid gel, its inability to recover after being shear thinned precludes it use in the anastomosis procedure. […] Here, incorporation of the cage near the strand termini of the hairpin hampers the ability of the network to recover. Based on this rheological assessment, the APC1 gel was chosen for further study.
Oscillatory Rheology. Rheology experiments were performed on an AR-G2 Rheometer (TA Instruments, DE) equipped with a 25 mm stainless steel parallel plate geometry using a 0.5 mm gap height. A 2 wt % peptide solution was prepared by dissolving lyophilized peptide in water and chilling on ice. An equal volume of chilled 100 mM BTP, 300 mM NaCl, pH 7.4 buffer was added and gently mixed, then immediately transferred to the rheometer plate equilibrated at 5° C. In separate experiments, APC1 gels were prepared in syringe, or as a preformed slab, and incubated for 1 hour at 37° C. Gels were then shear-thinned delivered, or transferred as an intact gel slab, to the rheometer plate, respectively. A temperature ramp from 5° C. to the desired temperature (25° C. or 37° C.) over 100 seconds was performed, followed by a 60 minute dynamic time sweep using an angular frequency of 6 rads and application of 0.2% strain to monitor the storage (G′) and loss (G″) modulus of the hydrogel. The resulting hydrogel was further evaluated by performing a frequency sweep from 0.1 to 100 rads and a strain sweep at 6 rads from 0.1% to 1000% strain. Oil was placed around the sample and on the plate to prevent evaporation. […]

[2] = Circular dichroism spectroscopy of peptide folding and assembly; settings: for Folding state by CD under gelation conditions / Folding state by CD in water: 1% w/v; for Folding state by CD under gelation conditions: pH 7.4, 150 mM NaCl, 25 or 37° C.; for Folding state by CD in water: 5° C.; for Temperature needed to induce folding and assembly: pH 7.4 buffer with NaCl, ellipticity at 216 nm vs temperature
Procedure: The ability of APC1 and APC2 to fold and associate into β-sheet rich assemblies was monitored using circular dichroism (CD) spectroscopy. In water at 5° C., the CD spectra of 1% w/v solutions of APC1 and APC2 indicate that the peptides are unfolded under these conditions (FIG. 4A). […] The NaCl screens the lysine point charges and increasing the temperature drives the hydrophobic effect, both of which favor folding and assembly. The exact temperatures needed to induce folding and assembly of each peptide were determined by monitoring the mean ellipticity at 216 nm as a function of temperature as shown in FIG. 13. In all the CD experiments, self-supporting hydrogels of both peptides (pH 7.4, 150 mM NaCl) form directly in the cuvette after folding is triggered. The same procedure can be used to form the gels directly in a syringe. […] Also evident in the spectra are absorptions due to the indoline cage, which occur in the near UV-CD (240-380 nm). […] However, when the peptides fold and assemble, the indoline ring is placed into a chiral environment, such as that provided by the fibril's hydrophobic interior. […] Importantly, it also supports the assertion that if the glutamate's negative point-charge were to be unmasked when the peptides are in the folded and assembled fibrillar state, that this event should be disruptive.
Circular Dichroism (CD). CD spectra of peptide hydrogels were collected on an AVIV 410 spectropolarimeter (AVIV Biomedical Inc., NJ). For wavelength spectra of APC1 and APC2 in water, a 1 wt % solution of peptide was prepared by dissolving lyophilized peptide in water at 5° C. The peptide solution was transferred to a 0.1 mm path length cylindrical cell and placed in the spectrometer sample holder equilibrated at 5° C. For temperature-dependent folding of 1 wt % hydrogels, a 2 wt % peptide solution was first prepared by dissolving lyophilized peptide in water and chilling on ice. Then, an equal volume of chilled 100 mM BTP, 300 mM NaCl, pH 7.4 buffer was added, gently mixed, and quickly transferred to a 0.1 mm path length cylindrical cell and placed in the spectrometer sample holder equilibrated at 5° C. The CD spectra were collected from 200-260 nm or 200-400 nm as a function of temperature at 5 degree increments from 5-80° C. with 10 min equilibration at each temperature. For UV photolysis of 1% w/v hydrogels, the solution was prepared in a manner identical to the folding studies and placed in the spectrometer at 25° C. or 37° C. for 30 minutes. The hydrogel within the cylindrical cell was irradiated for the specified time interval, followed by recording the mean residue ellipticity at 216 nm. For APC1, irradiation and spectra were obtained at 10 second intervals for the first 60 seconds, then at 1 minute intervals for a total of 5 minutes. For APC2, irradiation and spectra were obtained at 1 minute intervals for a total of 15 minutes. At the final time point, a wavelength spectrum from 200-400 nm of each peptide was obtained. Peptide concentration was determined by UV spectroscopy using ε220nm=16448 M^−1cm^−1 for cAPC1 and cAPC2 and ε220nm=31144 M^−1cm^−1 for APC1 and APC2. The mean residue ellipticity [θ] was calculated from [θ]=(θobs/10 lc)/r, where θobs is the measured ellipticity in degrees, l is the path length in centimeters, c is the concentration in molar, and r is the number of residues in the sequence. Each CD spectra shown is representative of three individual experiments, where each data point represents the average of 30 measurements, with a variance in ellipticity of 0.2 millidegrees at each wavelength.

[3] = UV photolysis of the indoline cage followed by absorbance at 248 nm; settings: absorbance at 248 nm during irradiation
Source text: FIGS. 6A and 6B test that assertion by following the fate of both the 4-methoxy-7-nitroindoline (MNI) group as well as the caged peptide during photolysis. In FIG. 6A, the absorbance of APC1 at 248 nm is followed as a function of time during irradiation. Absorbance at this wavelength is mainly due to the intact indoline cage. […] In FIG. 6B, photolysis of the caged peptide is followed by RP-HPLC. […] Mass spectroscopy was used to confirm the identity of both species.

Storage modulus (G′) of formed gel, regime I time sweep [1] | Onset of gelation after triggering ([1]; 1% w/v) | Folding state by CD under gelation conditions [2] | Folding state by CD in water [2] | Temperature needed to induce folding and assembly [2] [°C] | Storage modulus (G′) after UV irradiation, regime III ([1]; 365 nm, 10 minutes, recovered 1% w/v gel) [Pa] | Storage modulus (G′) recovered after shear thinning ([1]; 1000% strain for 30 seconds, then 0.2% strain, 1% w/v) [Pa] | Irradiation time to almost complete photolysis of the indoline cage [3] [s] | Substance
20,000 Pa | significant lag phase | β-sheet secondary structure | unfolded | 37 |  |  |  | VKVKGKVKV^DPPTKVEZKVKV [APC2]
~2,500 Pa | within the first few minutes | β-sheet secondary structure | unfolded | 25 | ~180 | 1900 | 90 | Ac-VKVKVKGKV^DPPTKZEVKVKV-NH2 [APC1]
